Experimental data: patent US20240294881A1, “CELL CULTURE SUPPLEMENT FOR PRODUCING STEM CELLS, AND METHOD FOR PRODUCING STEM CELLS” (OPTICELL, INC, priority 2021, published 2024)

Assays:
Assay type in all cases: cell-based
[1] = system: healthy human neonatal fibroblasts; experiment: Immunostaining of stem cell marker proteins in neonatal fibroblast spheroids
Protocol: To confirm whether stem cells were induced in fibroblast spheroids, the expression of stem cell marker proteins was examined by immunostaining with fluorescent dye-labeled antibodies. An aqueous solution of the polypeptide represented by formula (1) (0.125%) (cell culture supplement) was added to a commercial polystyrene-made 96-well round-bottom culture vessel (Nunclon Delta 96U Bottom, Thermo Fisher Scientific) at 100 μL/well, and the coating treatment with the cell culture supplement was completed in the same manner as in Example 2. Fibroblasts were maintained and cultured in a serum-free medium (Fujifilm Wako Pure Chemical Corporation; DMEM/F12 medium, human serum albumin recombinant 0.5 mg/ml, human transferrin recombinant 10 μg/mL, basic-FGF 5 ng/ml, and insulin 2.5 μg/mL). Fibroblasts floating in the medium were seeded in the culture vessel coated with the cell culture supplement at 4×10^4 cells/well/100 μL and cultured at 37° C. under 5% CO2 conditions. Spheroids were collected from the 96-well round-bottom culture vessel on day 20 from the start of culture, and cell fixation was performed with a 4% paraformaldehyde solution, followed by immunostaining. For fluorescence-labeled antibodies, three antibodies for detection of human stem cell marker proteins (NL557 fluorescent dye-labeled anti-SOX2 antibody (fluorescent orange), NL493 fluorescent dye-labeled anti-NANOG antibody (fluorescent green), and NL637-labeled anti-OCT4 antibody (fluorescent red), R&D Systems)) were used and reacted simultaneously to perform observation with a fluorescence microscope.

[2] = system: healthy human neonatal fibroblasts; experiment: Anti-NANOG immunostaining of cells dissociated from neonatal fibroblast spheroids; details: spheroids day 20 dissociated with Accutase, 24 h further culture; nuclei of some cells, majority NANOG-negative
Protocol: To detect stem cells induced in fibroblast spheroids, immunostaining with a fluorescent dye-labeled antibody was used, and stem cells in the spheroid-forming cells were detected. An aqueous solution of the polypeptide represented by formula (1) (0.125%) (cell culture supplement) was added to a commercial polystyrene-made 96-well round-bottom culture vessel (Nunclon Delta 96U Bottom, Thermo Fisher Scientific) at 100 μL/well to complete coating treatment with the cell culture supplement in the same manner as in Example 2. Fibroblasts were maintained and cultured in a serum-free medium (Fujifilm Wako Pure Chemical Corporation, DMEM/F12 medium, human serum albumin recombinant 0.5 mg/mL, human transferrin recombinant 10 μg/mL, basic-FGF 5 ng/ml, and insulin 2.5 μg/mL). Fibroblasts floating in the medium were seeded in the culture vessel coated with the cell culture supplement at 2×10^4 cells/well/100 μL and cultured at 37° C. under 5% CO2 conditions. On day 20 after the start of culture, spheroids were aseptically collected from the 96-well round-bottom culture vessel. […] For the fluorescence-labeled antibody, NL493 fluorescent dye-labeled anti-NANOG antibody (fluorescent green, R&D systems) was used, and observation was performed with a fluorescence microscope.

[3] = system: healthy human adult skin fibroblasts; experiment: Real-time PCR of stem cell and triploblastic marker genes in adult skin fibroblast spheroids; details: day 20 of 3D spheroid culture, ΔΔCt
Protocol: An aqueous solution of the polypeptide represented by formula (1) (0.125%) (cell culture supplement) was added to a commercial polystyrene-made 96-well round-bottom culture vessel (Nuncion Delta 96U Bottom, Thermo Fisher Scientific) and allowed to stand at 4° C. for 24 hours. The cell culture supplement solution was then removed and the coated cell culture supplement was dried in a dryer at 37° C. for 96 hours to complete the cell culture supplement coating process. Healthy human adult skin fibroblasts (Lonza, normal human dermal fibroblast-adult, referred to as “adult skin fibroblasts” below) were maintained and cultured in a serum-free medium (Fujifilm Wako Pure Chemical Corporation; DMEM/F12 medium, human serum albumin recombinant 0.5 mg/mL, human transferrin recombinant 10 μg/mL, basic-FGF 5 ng/ml, and insulin 2.5 μg/mL). Adult skin fibroblasts floating in 100 μL of the medium were seeded in the 96-well round-bottom culture vessel coated with the cell culture supplement at 2×10^4 cells/well and cultured at 37° C. under 5% CO2 conditions.
The detection of stem cell marker genes was performed by analysis of the expression of mRNA by real-time PCR. Specifically, on day 20 from the start of culture, spheroids were collected in a 15-mL centrifuge tube and centrifuged, followed by washing the cells with phosphate buffered saline(−) and collecting the cells. Cells two-dimensionally cultured in a culture vessel not treated with the cell culture supplement (control) (day 0) were washed with PBS (−) after removal of the medium. The cells were detached from the plate with 0.05% trypsin-EGTA and dissociated, followed by collecting the cells in a 15-mL centrifuge tube and washing again with PBS(−) again. A NucleoZOL (Macherey-Nagel) reagent was added to the spheroids, and RNA was extracted according to the protocol recommended by the reagent manufacturer and determined to be template RNA. For real-time PCR analysis, PCR probes from QuantiFast Probe RT-PCR Kits (QIAGEN; No. 204454) and TaqMan Gene Expression Assay Probe (Thermo Fisher Scientific) were used. PCR analysis was performed with a Rotor-Gene Q (QIAGEN) apparatus. For detection of genes, three transcription factors were used as probes for detecting the expression of undifferentiated stem cell marker genes: SOX2 (sex-determining region Y-box 2), OCT4 (octamer binding transcription factor 4), and NANOG (homeodomain transcription factor); and β-actin was used as an endogenous control gene (FIG. 13).
To determine whether stem cells induced in spheroids can differentiate into primordial three germ layers, the expression of triploblastic marker genes was examined by real-time PCR. For probes for detection, the following four triploblastic marker genes were used: SOX17 (sex-determining region Y-box 17; endoderm), GATA6 (GATA family of zinc finger transcription factors; endoderm), HAND1 (heart-and neural crest derivatives-expressed protein 1; mesoderm), and SOX1 (HMG-box (high mobility group) DNA-binding domain; ectoderm). For an endogenous control gene, TaqMan Gene Expression Assay Probe (ß-actin) was used (FIG. 14). In the gene expression analysis, relative quantification was performed according to the ΔΔCt method (Delta Delta Ct method). The results of analysis according to the ΔΔCt method show the amount of a gene expressed by control cells under the conditions of “no cell culture supplement, flat-bottom 2D growth, day 0” as “1.0” in relative terms, and the increase rate in “the expression level in spheroid proliferation on day 20” was determined by comparison.

## (Pro-Hyp-Gly)n [cell culture supplement]
[1]; spheroids day 20, NL493-labeled anti-NANOG antibody
  NANOG stem cell marker protein, fluorescence (green): detected
[1]; spheroids day 20, NL557-labeled anti-SOX2 antibody
  SOX2 stem cell marker protein, fluorescence (orange): detected
[1]; spheroids day 20, NL637-labeled anti-OCT4 antibody
  OCT4 stem cell marker protein, fluorescence (red): detected
[2]
  nuclear NANOG protein in cells dispersed from spheroids: strong NANOG antibody-positive green fluorescence
[3]; 2D control cells = 1.0
  NANOG gene expression level (increase vs control): 50.5 fold
  OCT4 gene expression level (increase vs control): 13.0 fold
  SOX2 gene expression level (increase vs control): 9.4 fold
[3]; control cells = 1.0
  GATA6 gene expression level (increase vs control): 2.2 fold
  HAND1 gene expression level (increase vs control): 33.9 fold
  SOX1 gene expression level (increase vs control): 7.1 fold
  SOX17 gene expression level (increase vs control): 11.4 fold
